{
  "source": "the supplement of paper PMC10307832",
  "assay_in_all_cases": "relative viability (nuclei count vs DMSO), 5 days (fraction); higher = more cells survive",
  "key": {"NCI-H2085": {"tested_on": "NCI-H2085", "summary_of_the_method": "(§1)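 Relative viability divides the nuclei count in treated wells by that in vehicle wells. Lung cancer cell lines were seeded in 1536-well plates, dosed by pin tool the next day, and fixed and stained after 5 days in one step with final 0.05% Triton X-100, 1% formaldehyde and 1 ug/ml Hoechst. Dosing was a single drug or a fixed anchor-drug dose plus five library-drug doses (not always all listed) in √10 steps, and values are medians of duplicate plates imaged at 4×.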"}, "NCI-H2170": {"tested_on": "NCI-H2170", "summary_of_the_method": "as §1"}, "NCI-H1944": {"tested_on": "NCI-H1944", "summary_of_the_method": "as §1"}, "LXF-289": {"tested_on": "LXF-289", "summary_of_the_method": "as §1"}, "NCI-H358": {"tested_on": "NCI-H358", "summary_of_the_method": "as §1"}, "SW 900": {"tested_on": "SW 900", "summary_of_the_method": "as §1"}, "NCI-H1915": {"tested_on": "NCI-H1915", "summary_of_the_method": "as §1"}, "HOP-62": {"tested_on": "HOP-62", "summary_of_the_method": "as §1"}, "LC-2-ad": {"tested_on": "LC-2-ad", "summary_of_the_method": "as §1"}, "UMC-11": {"tested_on": "UMC-11", "summary_of_the_method": "as §1"}, "HCC-78": {"tested_on": "HCC-78", "summary_of_the_method": "as §1"}, "COR-L 105": {"tested_on": "COR-L 105", "summary_of_the_method": "as §1"}, "LU99A": {"tested_on": "LU99A", "summary_of_the_method": "as §1"}, "HCC-366": {"tested_on": "HCC-366", "summary_of_the_method": "as §1"}, "NCI-H1793": {"tested_on": "NCI-H1793", "summary_of_the_method": "as §1"}, "LCLC-97TM1": {"tested_on": "LCLC-97TM1", "summary_of_the_method": "as §1"}, "NCI-H1975": {"tested_on": "NCI-H1975", "summary_of_the_method": "as §1"}, "NCI-H460": {"tested_on": "NCI-H460", "summary_of_the_method": "as §1"}, "EPLC-272H": {"tested_on": "EPLC-272H", "summary_of_the_method": "as §1"}, "A-427": {"tested_on": "A-427", "summary_of_the_method": "as §1"}, "SK-LU-1": {"tested_on": "SK-LU-1", "summary_of_the_method": "as §1"}, "NCI-H1755": {"tested_on": "NCI-H1755", "summary_of_the_method": "as §1"}},
  "data": [
    {"smiles": "Oc1nc(-c2ccc(C(F)(F)F)cc2)nc2c1CSCC2", "note": "[XAV939] + COc1cc2c(Oc3ccc(NC(=O)C4(C(=O)Nc5ccc(F)cc5)CC4)cc3F)ccnc2cc1OCCCN1CCOCC1 [Foretinib] (partner 0.25 µM)", "values": [
      {"measurement": "relative viability", "setting": "NCI-H2085; first compound 0.08 µM", "result": 1.06},
      {"measurement": "relative viability", "setting": "NCI-H2085; first compound 0.253 µM", "result": 1.11},
      {"measurement": "relative viability", "setting": "NCI-H2085; first compound 0.8 µM", "result": 0.772},
      {"measurement": "relative viability", "setting": "NCI-H2085; first compound 2.53 µM", "result": 0.893},
      {"measurement": "relative viability", "setting": "NCI-H2170; first compound 0.08 µM", "result": 1.03},
      {"measurement": "relative viability", "setting": "NCI-H2170; first compound 0.253 µM", "result": 1.01},
      {"measurement": "relative viability", "setting": "NCI-H2170; first compound 0.8 µM", "result": 0.979},
      {"measurement": "relative viability", "setting": "NCI-H2170; first compound 2.53 µM", "result": 0.864},
      {"measurement": "relative viability", "setting": "NCI-H1944; first compound 0.08 µM", "result": 0.942},
      {"measurement": "relative viability", "setting": "NCI-H1944; first compound 0.253 µM", "result": 0.842},
      {"measurement": "relative viability", "setting": "NCI-H1944; first compound 0.8 µM", "result": 0.814},
      {"measurement": "relative viability", "setting": "NCI-H1944; first compound 2.53 µM", "result": 0.704},
      {"measurement": "relative viability", "setting": "LXF-289; first compound 0.08 µM", "result": 0.985},
      {"measurement": "relative viability", "setting": "LXF-289; first compound 0.253 µM", "result": 0.95},
      {"measurement": "relative viability", "setting": "LXF-289; first compound 0.8 µM", "result": 0.967},
      {"measurement": "relative viability", "setting": "LXF-289; first compound 2.53 µM", "result": 0.988},
      {"measurement": "relative viability", "setting": "NCI-H358; first compound 0.08 µM", "result": 0.722},
      {"measurement": "relative viability", "setting": "NCI-H358; first compound 0.253 µM", "result": 0.596},
      {"measurement": "relative viability", "setting": "NCI-H358; first compound 0.8 µM", "result": 0.622},
      {"measurement": "relative viability", "setting": "NCI-H358; first compound 2.53 µM", "result": 0.6},
      {"measurement": "relative viability", "setting": "SW 900; first compound 0.08 µM", "result": 0.848},
      {"measurement": "relative viability", "setting": "SW 900; first compound 0.253 µM", "result": 0.765},
      {"measurement": "relative viability", "setting": "SW 900; first compound 0.8 µM", "result": 0.767},
      {"measurement": "relative viability", "setting": "SW 900; first compound 2.53 µM", "result": 0.82},
      {"measurement": "relative viability", "setting": "NCI-H1915; first compound 0.08 µM", "result": 1.18},
      {"measurement": "relative viability", "setting": "NCI-H1915; first compound 0.253 µM", "result": 1.11},
      {"measurement": "relative viability", "setting": "NCI-H1915; first compound 0.8 µM", "result": 1.08},
      {"measurement": "relative viability", "setting": "NCI-H1915; first compound 2.53 µM", "result": 1.03},
      {"measurement": "relative viability", "setting": "HOP-62; first compound 0.08 µM", "result": 1.23},
      {"measurement": "relative viability", "setting": "HOP-62; first compound 0.253 µM", "result": 1.04},
      {"measurement": "relative viability", "setting": "HOP-62; first compound 0.8 µM", "result": 0.996},
      {"measurement": "relative viability", "setting": "HOP-62; first compound 2.53 µM", "result": 0.943},
      {"measurement": "relative viability", "setting": "LC-2-ad; first compound 0.08 µM", "result": 1},
      {"measurement": "relative viability", "setting": "LC-2-ad; first compound 0.253 µM", "result": 0.854},
      {"measurement": "relative viability", "setting": "LC-2-ad; first compound 0.8 µM", "result": 0.911},
      {"measurement": "relative viability", "setting": "LC-2-ad; first compound 2.53 µM", "result": 0.843},
      {"measurement": "relative viability", "setting": "UMC-11; first compound 0.08 µM", "result": 1.13},
      {"measurement": "relative viability", "setting": "UMC-11; first compound 0.253 µM", "result": 0.873},
      {"measurement": "relative viability", "setting": "UMC-11; first compound 0.8 µM", "result": 0.978},
      {"measurement": "relative viability", "setting": "UMC-11; first compound 2.53 µM", "result": 0.8},
      {"measurement": "relative viability", "setting": "HCC-78; first compound 0.08 µM", "result": 0.591},
      {"measurement": "relative viability", "setting": "HCC-78; first compound 0.253 µM", "result": 0.552},
      {"measurement": "relative viability", "setting": "HCC-78; first compound 0.8 µM", "result": 0.552},
      {"measurement": "relative viability", "setting": "HCC-78; first compound 2.53 µM", "result": 0.506},
      {"measurement": "relative viability", "setting": "COR-L 105; first compound 0.08 µM", "result": 1.17},
      {"measurement": "relative viability", "setting": "COR-L 105; first compound 0.253 µM", "result": 1.06},
      {"measurement": "relative viability", "setting": "COR-L 105; first compound 0.8 µM", "result": 1.14},
      {"measurement": "relative viability", "setting": "COR-L 105; first compound 2.53 µM", "result": 0.964},
      {"measurement": "relative viability", "setting": "LU99A; first compound 0.08 µM", "result": 0.794},
      {"measurement": "relative viability", "setting": "LU99A; first compound 0.253 µM", "result": 0.815},
      {"measurement": "relative viability", "setting": "LU99A; first compound 0.8 µM", "result": 0.744},
      {"measurement": "relative viability", "setting": "LU99A; first compound 2.53 µM", "result": 0.724},
      {"measurement": "relative viability", "setting": "HCC-366; first compound 0.08 µM", "result": 0.91},
      {"measurement": "relative viability", "setting": "HCC-366; first compound 0.253 µM", "result": 0.877},
      {"measurement": "relative viability", "setting": "HCC-366; first compound 0.8 µM", "result": 0.933},
      {"measurement": "relative viability", "setting": "HCC-366; first compound 2.53 µM", "result": 0.941},
      {"measurement": "relative viability", "setting": "NCI-H1793; first compound 0.08 µM", "result": 0.846},
      {"measurement": "relative viability", "setting": "NCI-H1793; first compound 0.253 µM", "result": 0.558},
      {"measurement": "relative viability", "setting": "NCI-H1793; first compound 0.8 µM", "result": 0.63},
      {"measurement": "relative viability", "setting": "NCI-H1793; first compound 2.53 µM", "result": 0.454},
      {"measurement": "relative viability", "setting": "LCLC-97TM1; first compound 0.08 µM", "result": 0.919},
      {"measurement": "relative viability", "setting": "LCLC-97TM1; first compound 0.253 µM", "result": 0.796},
      {"measurement": "relative viability", "setting": "LCLC-97TM1; first compound 0.8 µM", "result": 0.897},
      {"measurement": "relative viability", "setting": "LCLC-97TM1; first compound 2.53 µM", "result": 0.936},
      {"measurement": "relative viability", "setting": "NCI-H1975; first compound 0.08 µM", "result": 0.858},
      {"measurement": "relative viability", "setting": "NCI-H1975; first compound 0.253 µM", "result": 0.696},
      {"measurement": "relative viability", "setting": "NCI-H1975; first compound 0.8 µM", "result": 0.691},
      {"measurement": "relative viability", "setting": "NCI-H1975; first compound 2.53 µM", "result": 0.756},
      {"measurement": "relative viability", "setting": "NCI-H460; first compound 0.08 µM", "result": 1.01},
      {"measurement": "relative viability", "setting": "NCI-H460; first compound 0.253 µM", "result": 0.926},
      {"measurement": "relative viability", "setting": "NCI-H460; first compound 0.8 µM", "result": 0.999},
      {"measurement": "relative viability", "setting": "NCI-H460; first compound 2.53 µM", "result": 0.922},
      {"measurement": "relative viability", "setting": "EPLC-272H; first compound 0.08 µM", "result": 0.808},
      {"measurement": "relative viability", "setting": "EPLC-272H; first compound 0.253 µM", "result": 0.603},
      {"measurement": "relative viability", "setting": "EPLC-272H; first compound 0.8 µM", "result": 0.672},
      {"measurement": "relative viability", "setting": "EPLC-272H; first compound 2.53 µM", "result": 0.548},
      {"measurement": "relative viability", "setting": "A-427; first compound 0.08 µM", "result": 1.26},
      {"measurement": "relative viability", "setting": "A-427; first compound 0.253 µM", "result": 1.07},
      {"measurement": "relative viability", "setting": "A-427; first compound 0.8 µM", "result": 1.04},
      {"measurement": "relative viability", "setting": "A-427; first compound 2.53 µM", "result": 0.862},
      {"measurement": "relative viability", "setting": "SK-LU-1; first compound 0.08 µM", "result": 0.861},
      {"measurement": "relative viability", "setting": "SK-LU-1; first compound 0.253 µM", "result": 0.756},
      {"measurement": "relative viability", "setting": "SK-LU-1; first compound 0.8 µM", "result": 0.883},
      {"measurement": "relative viability", "setting": "SK-LU-1; first compound 2.53 µM", "result": 0.78},
      {"measurement": "relative viability", "setting": "NCI-H1755; first compound 0.08 µM", "result": 0.891},
      {"measurement": "relative viability", "setting": "NCI-H1755; first compound 0.253 µM", "result": 0.787},
      {"measurement": "relative viability", "setting": "NCI-H1755; first compound 0.8 µM", "result": 0.815},
      {"measurement": "relative viability", "setting": "NCI-H1755; first compound 2.53 µM", "result": 0.809}
    ]}
  ]
}
